Measured values published in ChEMBL document CHEMBL1145752, “Dissociation of antibacterial and hemolytic activities of an amphipathic peptide antibiotic” (2003).
Converted amounts (≈) assume the structure as drawn. Non-standard residues stand in square brackets, D forms with d. Residues, ends and D or L forms follow the SMILES beside them. Orn = NCCC[C@H](N)C(=O)O

How the values were obtained:
Type in all cases: functional
[1] = Tested for minimum concentration for hemolysis of fresh human erythrocytes
[2] = test system: Bacillus subtilis; assay: Ratio of minimum hemolysis concentration to that of minimum inhibitory concentration
[3] = test system: Bacillus subtilis; assay: Inhibitory activity was determined against bacillus subtilis (ATCC 82)

SMILES | MIC [3] [µg/mL] | MHC [1] [µg/mL] | Ratio [2]
CC[C@H](C)[C@@H]1NC(=O)[C@H](CC(N)=O)NC(=O)[C@@H](Cc2ccccc2)NC(=O)[C@H](Cc2ccccc2)NC(=O)[C@@H]2CCCN2C(=O)[C@@H](Cc2ccccc2)NC(=O)[C@H](CC(C)C)NC(=O)[C@H](CCCN)NC(=O)[C@H](C(C)C)NC(=O)[C@H](Cc2ccc(O)cc2)NC1=O | 1.8 (≈ 1.43 µM) | 45 | 25
CC(C)C[C@@H]1NC(=O)[C@H](CC(N)=O)NC(=O)[C@@H](Cc2ccccc2)NC(=O)[C@H](Cc2ccccc2)NC(=O)[C@@H]2CCCN2C(=O)[C@@H](Cc2ccccc2)NC(=O)[C@H](CC(C)C)NC(=O)[C@H](CCCN)NC(=O)[C@H](C(C)C)NC(=O)[C@H](Cc2ccc(O)cc2)NC1=O | 0.3 (≈ 0.239 µM) | 20 | 67
CC(C)C[C@@H]1NC(=O)[C@H](CCCN)NC(=O)[C@H](C(C)C)NC(=O)[C@H](Cc2ccc(O)cc2)NC(=O)[C@H](CC(N)=O)NC(=O)[C@H](CC(N)=O)NC(=O)[C@@H](Cc2ccccc2)NC(=O)[C@H](Cc2ccccc2)NC(=O)[C@@H]2CCCN2C(=O)[C@@H](Cc2ccccc2)NC1=O | 0.4 (≈ 0.318 µM) | 20 | 50
CC(C)C[C@@H]1NC(=O)[C@H](CCCN)NC(=O)[C@H](C(C)C)NC(=O)[C@H](Cc2ccc(O)cc2)NC(=O)[C@H](Cc2ccc(O)cc2)NC(=O)[C@H](CC(N)=O)NC(=O)[C@@H](Cc2ccccc2)NC(=O)[C@H](Cc2ccccc2)NC(=O)[C@@H]2CCCN2C(=O)[C@@H](Cc2ccccc2)NC1=O | 5 (≈ 3.83 µM) | 120 | 24
CC(C)C[C@@H]1NC(=O)[C@H](CCCN)NC(=O)[C@H](C(C)C)NC(=O)[C@H](Cc2ccc(O)cc2)NC(=O)[C@H](CCC(N)=O)NC(=O)[C@H](CC(N)=O)NC(=O)[C@@H](Cc2ccccc2)NC(=O)[C@H](C)NC(=O)[C@@H]2CCCN2C(=O)[C@@H](Cc2ccccc2)NC1=O | 19 (≈ 15.9 µM) | 47 | 2.5
CC(C)C[C@@H]1NC(=O)[C@H](CCCN)NC(=O)[C@H](C(C)C)NC(=O)[C@H](Cc2ccc(O)cc2)NC(=O)[C@H](CCC(=O)O)NC(=O)[C@H](CC(N)=O)NC(=O)[C@@H](Cc2ccccc2)NC(=O)[C@H](Cc2ccccc2)NC(=O)[C@@H]2CCCN2C(=O)[C@@H](Cc2ccccc2)NC1=O | 7.5 (≈ 5.9 µM) | 30 | 4
CC(C)C[C@@H]1NC(=O)[C@H](CCCN)NC(=O)[C@H](C(C)C)NC(=O)[C@H](C)NC(=O)[C@H](CCC(N)=O)NC(=O)[C@H](CC(N)=O)NC(=O)[C@@H](Cc2ccccc2)NC(=O)[C@H](Cc2ccccc2)NC(=O)[C@@H]2CCCN2C(=O)[C@@H](Cc2ccccc2)NC1=O | 14 (≈ 11.9 µM) | 14 | 1
CC(C)C[C@@H]1NC(=O)[C@H](CCCN)NC(=O)[C@H](C(C)C)NC(=O)[C@H](Cc2ccc(O)cc2)NC(=O)[C@H](CCC(N)=O)NC(=O)[C@H](CC(N)=O)NC(=O)[C@@H](Cc2ccccc2)NC(=O)[C@H](Cc2ccccc2)NC(=O)[C@H](C)NC(=O)[C@@H](Cc2ccccc2)NC1=O | 18 (≈ 14.5 µM) | 53 | 2.9
CC(C)C[C@@H]1NC(=O)[C@H](CCCN)NC(=O)[C@H](C(C)C)NC(=O)[C@H](Cc2ccc(O)cc2)NC(=O)[C@H](CCCCN)NC(=O)[C@H](CC(N)=O)NC(=O)[C@@H](Cc2ccccc2)NC(=O)[C@H](Cc2ccccc2)NC(=O)[C@@H]2CCCN2C(=O)[C@@H](Cc2ccccc2)NC1=O (cyclo(F[dF]NKYV[Orn]L[dF]P)) | 1.1 (≈ 0.866 µM) | 99 | 90
CC(C)C[C@@H]1NC(=O)[C@H](CCCN)NC(=O)[C@H](C(C)C)NC(=O)[C@H](Cc2ccc(O)cc2)NC(=O)[C@H](CCCN)NC(=O)[C@H](CC(N)=O)NC(=O)[C@@H](Cc2ccccc2)NC(=O)[C@H](Cc2ccccc2)NC(=O)[C@@H]2CCCN2C(=O)[C@@H](Cc2ccccc2)NC1=O (cyclo(F[dF]N[Orn]YV[Orn]L[dF]P)) | 0.2 (≈ 0.159 µM) | 25 | 125
CC(C)C[C@@H]1NC(=O)[C@H](CCCN)NC(=O)[C@H](C(C)C)NC(=O)[C@H](Cc2ccc(O)cc2)NC(=O)[C@H](CCC(N)=O)NC(=O)[C@H](CC(N)=O)NC(=O)[C@@H](Cc2ccccc2)NC(=O)[C@H](Cc2ccccc2)NC(=O)[C@@H]2CCCN2C(=O)[C@@H](Cc2ccccc2)NC1=O [TYROCIDINE A] (cyclo(F[dF]NQYV[Orn]L[dF]P)) | 8.3 (≈ 6.53 µM) | 8.2 | 1

Continued by falling MIC [3], values first:

MIC [3] [µg/mL] | SMILES | MHC [1] [µg/mL] | Ratio [2]
25 (≈ 20.4 µM) | CC(C)[C@@H]1NC(=O)[C@H](Cc2ccc(O)cc2)NC(=O)[C@H](CCC(N)=O)NC(=O)[C@H](CC(N)=O)NC(=O)[C@@H](Cc2ccccc2)NC(=O)[C@H](Cc2ccccc2)NC(=O)[C@@H]2CCCN2C(=O)[C@@H](Cc2ccccc2)NC(=O)[C@H](C)NC(=O)[C@H](CCCN)NC1=O | 50 | 2
15 (≈ 12.1 µM) | CC(C)C[C@@H]1NC(=O)[C@H](CCCN)NC(=O)[C@H](C)NC(=O)[C@H](Cc2ccc(O)cc2)NC(=O)[C@H](CCC(N)=O)NC(=O)[C@H](CC(N)=O)NC(=O)[C@@H](Cc2ccccc2)NC(=O)[C@H](Cc2ccccc2)NC(=O)[C@@H]2CCCN2C(=O)[C@@H](Cc2ccccc2)NC1=O | 16 | 1.1
15 (≈ 12.6 µM) | CC(C)C[C@@H]1NC(=O)[C@H](CCCN)NC(=O)[C@H](C(C)C)NC(=O)[C@H](Cc2ccc(O)cc2)NC(=O)[C@H](CCC(N)=O)NC(=O)[C@H](CC(N)=O)NC(=O)[C@@H](Cc2ccccc2)NC(=O)[C@H](Cc2ccccc2)NC(=O)[C@@H]2CCCN2C(=O)[C@@H](C)NC1=O | 20 | 1.3
15 (≈ 12.2 µM) | CC(C)C[C@@H]1NC(=O)[C@H](CCCN)NC(=O)[C@H](C(C)C)NC(=O)[C@H](Cc2ccc(O)cc2)NC(=O)[C@H](CCC(N)=O)NC(=O)[C@H](C)NC(=O)[C@@H](Cc2ccccc2)NC(=O)[C@H](Cc2ccccc2)NC(=O)[C@@H]2CCCN2C(=O)[C@@H](Cc2ccccc2)NC1=O | 39 | 2.6
13 (≈ 10.6 µM) | CC(C)C[C@@H]1NC(=O)[C@H](C)NC(=O)[C@H](C(C)C)NC(=O)[C@H](Cc2ccc(O)cc2)NC(=O)[C@H](CCC(N)=O)NC(=O)[C@H](CC(N)=O)NC(=O)[C@@H](Cc2ccccc2)NC(=O)[C@H](Cc2ccccc2)NC(=O)[C@@H]2CCCN2C(=O)[C@@H](Cc2ccccc2)NC1=O | 13 | 1
10 (≈ 8.37 µM) | CC(C)C[C@@H]1NC(=O)[C@H](CCCN)NC(=O)[C@H](C(C)C)NC(=O)[C@H](Cc2ccc(O)cc2)NC(=O)[C@H](CCC(N)=O)NC(=O)[C@H](CC(N)=O)NC(=O)[C@@H](C)NC(=O)[C@H](Cc2ccccc2)NC(=O)[C@@H]2CCCN2C(=O)[C@@H](Cc2ccccc2)NC1=O | 47 | 4.7
5.3 (≈ 4.21 µM) | CC(C)C[C@@H]1NC(=O)[C@H](CCCN)NC(=O)[C@H](C(C)C)NC(=O)[C@H](Cc2ccc(O)cc2)NC(=O)[C@H](CC(=O)O)NC(=O)[C@H](CC(N)=O)NC(=O)[C@@H](Cc2ccccc2)NC(=O)[C@H](Cc2ccccc2)NC(=O)[C@@H]2CCCN2C(=O)[C@@H](Cc2ccccc2)NC1=O | 32 | 6
3.8 (≈ 2.86 µM) | CC(C)C[C@@H]1NC(=O)[C@H](CCCN)NC(=O)[C@H](C(C)C)NC(=O)[C@H](Cc2ccc(O)cc2)NC(=O)[C@H](Cc2c[nH]c3ccccc23)NC(=O)[C@H](CC(N)=O)NC(=O)[C@@H](Cc2ccccc2)NC(=O)[C@H](Cc2ccccc2)NC(=O)[C@@H]2CCCN2C(=O)[C@@H](Cc2ccccc2)NC1=O | 125 | 33
2.9 (≈ 2.34 µM) | CC(C)C[C@@H]1NC(=O)[C@H](CCCN)NC(=O)[C@H](C(C)C)NC(=O)[C@H](Cc2ccc(O)cc2)NC(=O)[C@H](C(C)C)NC(=O)[C@H](CC(N)=O)NC(=O)[C@@H](Cc2ccccc2)NC(=O)[C@H](Cc2ccccc2)NC(=O)[C@@H]2CCCN2C(=O)[C@@H](Cc2ccccc2)NC1=O | 35 | 12
1.5 (≈ 1.24 µM) | CC(C)C[C@@H]1NC(=O)[C@H](CCCN)NC(=O)[C@H](C(C)C)NC(=O)[C@H](Cc2ccc(O)cc2)NC(=O)[C@H](C)NC(=O)[C@H](CC(N)=O)NC(=O)[C@@H](Cc2ccccc2)NC(=O)[C@H](Cc2ccccc2)NC(=O)[C@@H]2CCCN2C(=O)[C@@H](Cc2ccccc2)NC1=O | 28 | 19
0.6 (≈ 0.465 µM) | CC(C)C[C@@H]1NC(=O)[C@H](CCCN)NC(=O)[C@H](C(C)C)NC(=O)[C@H](Cc2ccc(O)cc2)NC(=O)[C@H](Cc2ccccc2)NC(=O)[C@H](CC(N)=O)NC(=O)[C@@H](Cc2ccccc2)NC(=O)[C@H](Cc2ccccc2)NC(=O)[C@@H]2CCCN2C(=O)[C@@H](Cc2ccccc2)NC1=O | 18 | 30
0.3 (≈ 0.231 µM) | CC(C)C[C@@H]1NC(=O)[C@H](CCCN)NC(=O)[C@H](C(C)C)NC(=O)[C@H](Cc2ccc(O)cc2)NC(=O)[C@H](CCCN=C(N)N)NC(=O)[C@H](CC(N)=O)NC(=O)[C@@H](Cc2ccccc2)NC(=O)[C@H](Cc2ccccc2)NC(=O)[C@@H]2CCCN2C(=O)[C@@H](Cc2ccccc2)NC1=O | 42 | 140
0.3 (≈ 0.244 µM) | CC(C)C[C@@H]1NC(=O)[C@H](CCCN)NC(=O)[C@H](C(C)C)NC(=O)[C@H](Cc2ccc(O)cc2)NC(=O)[C@H](CO)NC(=O)[C@H](CC(N)=O)NC(=O)[C@@H](Cc2ccccc2)NC(=O)[C@H](Cc2ccccc2)NC(=O)[C@@H]2CCCN2C(=O)[C@@H](Cc2ccccc2)NC1=O | 16 | 53
